The source of these data is patent US20130109581A1, “POSITIVELY CHARGED SPECIES AS BINDING REAGENTS IN THE SEPARATION OF PROTEIN AGGREGATES FROM MONOMERS” (priority 2009, published 2013).

Entries after “also recorded” stand apart in the source; their conditions may differ.

One experiment has as its target T1, Aβ(1-42) aggregates (Homo sapiens, UniProt P05067).
T1 construct: For Aβ(1-42), 10 nL of 10% brain homogenate was added to each well; from tissue; host or cells: Alzheimer's disease patient brain homogenate
The format is binding.

In another experiment the test system is tau aggregates. The format is binding, human.
A further experiment concerns the target T2, Aβ42 Monomer (Homo sapiens, UniProt P05067).
T2 construct: The Ab42 aggregates were prepared as previously described
The experiment in a line: Misfolded Protein Assay, Limit of Detection in CSF: monomer. Format: binding. The note with it: spiked into CSF; LoD = 2× over background. As to the method: The Ab42 aggregates were prepared as previously described: fibrils were prepared per Stine et al (JBC 2003, 278, p11612), globulomers were prepared per Barghorn et al (J Neurology 2005 95 p834), ADDLs were prepared per Lambert et al (PNAS 1998, 95 p6448), and ASPDs were prepared per Noguchi et al (JBC 2009 284 p32895). Normal CSF was pooled from clinically characterized non-demented patient CSF samples. AD CSF was pooled from clinically-characterized AD patient samples. Alzheimer's Disease Brain Homogenate (ADBH) was prepared by sonication of clinically diagnosed AD patient brain samples in 0.2M.sucrose (1:10 w/v).
For the capture assay (Misfolded Protein Assay), aliquots of the beads (30 ul) were added to wells of a 96 well plate, followed by 125 ul of sample in 80:20 CSF:TBSTT. The plate was sealed and incubated for 1 h at 37 C with shaking. The plate was washed with TBST and the residual buffer removed. A denaturing solution (0.1 N NaOH) was added to each well and the plate heated to 80 C. for 30 min with shaking. After cooling the plate to RT, a neutralizing buffer (0.12 M NaH2PO3-0.4% TW20,) was added and the plate shaken briefly at RT. The assay was analyzed using the triplex Mesoscale Discovery ELISA kit for Aβ. The Aβ in the samples eluted from the beads were detected per the manufacturer's protocol. […]

The next experiment concerns the target alpha synuclein fibrils (Homo sapiens, UniProt P37840). Description: MPA of alpha-synuclein fibrils in CSF or plasma. Format: binding. As to the method: Amylin fibrils were prepared as reported in J. Biological Chem. (1999) 274, No. 28, pp 19509-19512. To denature the fibrils, samples were treated with 5.4 M guanidine thiocyanate for 30 minutes at room temperature. The samples were then diluted to the indicated concentrations and alpha synuclein was detected by a sandwich ELISA (Invitrogen; catalog #KHB0061) according to the manufacturer's instructions.
The specificity of PSR1 beads for aggregated alpha synuclein was tested by incubating 3 ul PSR1 beads with fibrillar alpha-synuclein with or without a pretreatment with chemical denaturant (5.4 M guanidine thiocyanate for 30 minutes at room temperature). Alpha synuclein was diluted into 125 ul 80% CSF or plasma in TBSTT (50 mM Tris, 150 mM NaCl, 1% TritonX-100, 1% Tween20) at the indicated concentrations. Samples were incubated for 1 hour at 37 C and 550 rpm before washing with TBS 0.05% Tween20 buffer. Bound alpha synuclein was eluted from the beads with 4 ul 6 M guanidine thiocyanate (30 minutes at room temperature), diluted with 246 ul ELISA diluent buffer and then detected by sandwich ELISA (Invitrogen; catalog #KHB0061).

T2 sequence (P05067 672-713 limits assumed): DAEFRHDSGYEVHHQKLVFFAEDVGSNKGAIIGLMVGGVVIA
T1 sequence (P05067 672-713 limits assumed): as above

Regarding Nab-Nab-Nab-Nbn-Nab-Nbn [PSR1], the “distinguishing control and AD brain homogenates, Abeta (1-42) detected” value on Aβ(1-42) aggregates is “clearly distinguished between control and either vCJD or AD samples”. For the same substance, in the experiment with tau aggregates, the “distinguishing control and AD brain homogenates, Tau detected” value is “clearly distinguished between control and either vCJD or AD samples”; the “total Tau signal, AD vs normal brain homogenate” value is “higher signals in the AD samples relative to the normal brain homogenates; also recorded: highest signal”. In addition, on Aβ42 Monomer, the LoD was about 1000 pg/mL. Further, the “binding to alpha synuclein fibrils compared to control bead” value at alpha synuclein fibrils (diluted into CSF or plasma, FIG. 50) was “specifically bound to alpha synuclein (aSyn) fibrils”. The “binding to alpha synuclein fibrils vs monomers” value on alpha synuclein fibrils (native vs denatured aSyn in CSF or plasma, FIG. 51) was “bound preferentially to alpha synuclein fibrils”.
